Laboratory results as given in patent US6316500A, “Aliphatically unsaturated hydroxy benzoates and preservative compositions thereof” (ISP Investments Inc., priority 1999, dated 2001).

Key:
Format in all cases: cell-based
Details in all cases: 0.5% preservative in emulsion; for number of colonies per milliliter, 28 days: reinoculated at 21 days
A. niger 16404 = assay: Activity test: preservative challenge test in emulsion, A. niger 16404
Experimental: (§1) The emulsion was prepared by separately mixing components in phase A and phase B at 75-80° C. for 15 minutes. The phases were then combined and mixed for another 10 minutes and cooled to 45° C. with stirring. Preservative was then added followed by citric acid to adjust pH to from abut 6.5 to 7.5. Stirring of the resulting mixture was continued until a temperature of 30° C. was reached. The activity tests were carried out using the following microorganisms: A. niger, B. cepacia, C. albicans, E. coli, P. aeruginosa and S. aureus. 50 g aliquots of the test emulsion containing various amounts of the preservative admixture as reported in Tables I-V were inoculated with approximately 10^7 -10^8 of the test organisms. The test samples then were stirred to disperse the challenge inoculum. The samples were incubated and assayed at 48 hours, 7, 14, 21 and 28 days. The assays were performed on 1 g, of the test sample by serially diluting 10^3 to 10^6 of the original concentration. The plating medium for bacteria was Letheen agar and for fungi it was low pH Mycophil agar with Tween 20. Each plated sample was incubated for 48 hours at 37° C. for bacteria, 5 days at 25° C. for mold and 3 days at 25° C. for fungi. After incubation, readings of the number of colonies per milliliter (cfu/ml) were made results were determined, as reported in associated Tables IA-VA. At 21 days the test product was reinoculated with half of the original inoculum.

B. cepacia 25416 = assay: Activity test: preservative challenge test in emulsion, B. cepacia 25416
Experimental: as §1

C. albicans 10231 = assay: Activity test: preservative challenge test in emulsion, C. albicans 10231
Experimental: as §1

E. coli 8739 = assay: Activity test: preservative challenge test in emulsion, E. coli 8739
Experimental: as §1

P. aeruginosa 9027 = assay: Activity test: preservative challenge test in emulsion, P. aeruginosa 9027
Experimental: as §1

S. aureus 6538 = assay: Activity test: preservative challenge test in emulsion, S. aureus 6538
Experimental: as §1

SMILES	number of colonies per milliliter, 48 hr (A. niger 16404) [cfu/ml]	number of colonies per milliliter, 7 days (A. niger 16404) [cfu/ml]	number of colonies per milliliter, 14 days (A. niger 16404) [cfu/ml]	number of colonies per milliliter, 21 days (A. niger 16404) [cfu/ml]	number of colonies per milliliter, 28 days (A. niger 16404) [cfu/ml]	number of colonies per milliliter, 48 hr (B. cepacia 25416)	number of colonies per milliliter, 7 days (B. cepacia 25416)	number of colonies per milliliter, 14 days (B. cepacia 25416)	number of colonies per milliliter, 21 days (B. cepacia 25416)	number of colonies per milliliter, 28 days (B. cepacia 25416)	number of colonies per milliliter, 48 hr (C. albicans 10231) [cfu/ml]	number of colonies per milliliter, 7 days (C. albicans 10231) [cfu/ml]	number of colonies per milliliter, 14 days (C. albicans 10231) [cfu/ml]	number of colonies per milliliter, 21 days (C. albicans 10231) [cfu/ml]	number of colonies per milliliter, 28 days (C. albicans 10231) [cfu/ml]	number of colonies per milliliter, 48 hr (E. coli 8739) [cfu/ml]	number of colonies per milliliter, 7 days (E. coli 8739) [cfu/ml]	number of colonies per milliliter, 14 days (E. coli 8739) [cfu/ml]	number of colonies per milliliter, 21 days (E. coli 8739) [cfu/ml]	number of colonies per milliliter, 28 days (E. coli 8739) [cfu/ml]	further results
CC=CC=CCOC(=O)c1ccc(O)cc1O [2,4-Hexadienyl-2,4-dihydroxybenzoate, 2,4-Hexadienyl-2,4-Dihydroxybenzoate]	4200	30	< 10	< 10	< 10	< 10^6 cfu/ml	< 10^6 cfu/ml	< 10^6 cfu/ml	< 10^6 cfu/ml	< 10^6 cfu/ml	< 10	< 10	< 10	< 10	< 10	< 10	< 10	< 10	< 10	< 10	number of colonies per milliliter, 48 hr (P. aeruginosa 9027): < 10 cfu/ml; number of colonies per milliliter, 7 days (P. aeruginosa 9027): < 10 cfu/ml; number of colonies per milliliter, 14 days (P. aeruginosa 9027): < 10 cfu/ml; number of colonies per milliliter, 21 days (P. aeruginosa 9027): < 10 cfu/ml; number of colonies per milliliter, 28 days (P. aeruginosa 9027): < 10 cfu/ml; number of colonies per milliliter, 48 hr (S. aureus 6538): < 10 cfu/ml; number of colonies per milliliter, 7 days (S. aureus 6538): < 10 cfu/ml; number of colonies per milliliter, 14 days (S. aureus 6538): < 10 cfu/ml; number of colonies per milliliter, 21 days (S. aureus 6538): < 10 cfu/ml; number of colonies per milliliter, 28 days (S. aureus 6538): < 10 cfu/ml
CC=CC=CCOC(=O)c1ccc(O)cc1 [2,4-Hexadienyl-4-Hydroxybenzoate]	4800	< 10	< 10	< 10	< 10	< 10^6 cfu/ml	< 10^6 cfu/ml	< 10^6 cfu/ml	< 10^6 cfu/ml	< 10^6 cfu/ml	< 10	< 10	< 10	< 10	< 10	< 10	< 10	< 10	< 10	< 10	number of colonies per milliliter, 48 hr (P. aeruginosa 9027): < 10 cfu/ml; number of colonies per milliliter, 7 days (P. aeruginosa 9027): < 10 cfu/ml; number of colonies per milliliter, 14 days (P. aeruginosa 9027): < 10 cfu/ml; number of colonies per milliliter, 21 days (P. aeruginosa 9027): < 10 cfu/ml; number of colonies per milliliter, 28 days (P. aeruginosa 9027): < 10 cfu/ml; number of colonies per milliliter, 48 hr (S. aureus 6538): < 10 cfu/ml; number of colonies per milliliter, 7 days (S. aureus 6538): < 10 cfu/ml; number of colonies per milliliter, 14 days (S. aureus 6538): < 10 cfu/ml; number of colonies per milliliter, 21 days (S. aureus 6538): < 10 cfu/ml; number of colonies per milliliter, 28 days (S. aureus 6538): < 10 cfu/ml
